Assay results published in patent US10787447B2, “Pharmaceutical compounds” (Heptares Therapeutics Limited, priority 2018, dated 2020).

Legend:
Type in all cases: cell-based
[1] = target: T1, human muscarinic M3 receptor (Homo sapiens, UniProt P20309); experiment: Alphascreen Surefire phospho-ERK1/2 functional assay, M3; settings: for % Emax cf. ACh, M3: CHO cells stably expressing human M3; for % Emax cf. ACh, M3 / Emax: Emax relative to ACh; for EC50: pEC50 M3, CHO cells stably expressing human M3, phospho-ERK1/2; for Emax: CHO, read-out: % Emax cf. ACh, M3, CHO cells stably expressing human M3
T1 construct: expressed in transfected cells
T1 sequence (P20309 whole entry): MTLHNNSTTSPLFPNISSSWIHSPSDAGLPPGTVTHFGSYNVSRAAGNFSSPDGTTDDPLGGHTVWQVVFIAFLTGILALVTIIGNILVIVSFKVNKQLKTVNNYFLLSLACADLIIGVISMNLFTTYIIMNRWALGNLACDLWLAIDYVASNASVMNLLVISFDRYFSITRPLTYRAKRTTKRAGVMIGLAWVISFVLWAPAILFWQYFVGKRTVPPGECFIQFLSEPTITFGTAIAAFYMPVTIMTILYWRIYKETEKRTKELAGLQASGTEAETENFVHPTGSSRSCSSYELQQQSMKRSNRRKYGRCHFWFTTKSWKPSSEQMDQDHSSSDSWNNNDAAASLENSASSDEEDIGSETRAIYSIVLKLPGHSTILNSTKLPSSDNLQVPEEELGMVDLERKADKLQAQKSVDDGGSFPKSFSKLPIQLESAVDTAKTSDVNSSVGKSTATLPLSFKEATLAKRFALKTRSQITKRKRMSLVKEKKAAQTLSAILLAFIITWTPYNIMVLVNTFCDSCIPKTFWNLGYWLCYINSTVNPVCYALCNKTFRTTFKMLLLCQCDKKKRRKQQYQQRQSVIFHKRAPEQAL
Protocol: (§1) ERK1/2 phosphorylation is a downstream consequence of both Gq/11 and Gi/o protein coupled receptor activation, making it highly suitable for the assessment of M1, M3 (Gq/11 coupled) and M2, M4 receptors (Gi/o coupled), rather than using different assay formats for different receptor subtypes. CHO cells stably expressing the human muscarinic M1, M2, M3 or M4 receptor were plated (25K/well) onto 96-well tissue culture plates in MEM-alpha+10% dialysed FBS. Once adhered, cells were serum-starved overnight. Agonist stimulation was performed by the addition of 5 μL agonist to the cells for 5 min (37° C.). Media was removed and 50 μL of lysis buffer added. After 15 min, a 4 μL sample was transferred to 384-well plate and 7 μL of detection mixture added.
(§2) Isomer assignment (Isomer 1, Isomer 2, etc.) is based on the retention time of the compound using the separation technique that was performed in the final purification step. By implication, this could be reversed phase HPLC, chiral HPLC or chiral SFC retention time, and this will vary from compound to compound.

[2] = target: T2, human muscarinic M2 receptor (Homo sapiens, UniProt P08172); experiment: Alphascreen Surefire phospho-ERK1/2 functional assay, M2; settings: for % Emax cf. ACh, M2: CHO cells stably expressing human M2; for % Emax cf. ACh, M2 / Emax: Emax relative to ACh; for EC50: pEC50 M2, CHO cells stably expressing human M2, phospho-ERK1/2; for Emax: CHO, read-out: % Emax cf. ACh, M2, CHO cells stably expressing human M2
T2 sequence (P08172 1-466): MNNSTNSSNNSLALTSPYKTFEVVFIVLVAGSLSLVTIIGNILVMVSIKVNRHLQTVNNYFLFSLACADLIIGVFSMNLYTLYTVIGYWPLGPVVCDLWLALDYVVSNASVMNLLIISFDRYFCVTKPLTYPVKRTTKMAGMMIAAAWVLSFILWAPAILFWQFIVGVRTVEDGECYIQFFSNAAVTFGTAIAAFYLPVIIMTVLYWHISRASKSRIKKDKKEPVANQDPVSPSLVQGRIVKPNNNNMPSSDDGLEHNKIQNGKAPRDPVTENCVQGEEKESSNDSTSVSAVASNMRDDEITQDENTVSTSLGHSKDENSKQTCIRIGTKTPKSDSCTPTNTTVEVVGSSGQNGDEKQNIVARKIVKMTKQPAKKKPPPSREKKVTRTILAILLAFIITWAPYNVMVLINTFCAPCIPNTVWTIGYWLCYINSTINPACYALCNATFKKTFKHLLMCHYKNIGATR
Protocol: as §1, §2

[3] = target: T3, human muscarinic M4 receptor (Homo sapiens, UniProt P08173); experiment: Alphascreen Surefire phospho-ERK1/2 functional assay, M4; settings: for % Emax cf. ACh, M4: CHO cells stably expressing human M4, Emax relative to ACh; for EC50: pEC50 M4, CHO cells stably expressing human M4, phospho-ERK1/2
T3 sequence (P08173 1-479): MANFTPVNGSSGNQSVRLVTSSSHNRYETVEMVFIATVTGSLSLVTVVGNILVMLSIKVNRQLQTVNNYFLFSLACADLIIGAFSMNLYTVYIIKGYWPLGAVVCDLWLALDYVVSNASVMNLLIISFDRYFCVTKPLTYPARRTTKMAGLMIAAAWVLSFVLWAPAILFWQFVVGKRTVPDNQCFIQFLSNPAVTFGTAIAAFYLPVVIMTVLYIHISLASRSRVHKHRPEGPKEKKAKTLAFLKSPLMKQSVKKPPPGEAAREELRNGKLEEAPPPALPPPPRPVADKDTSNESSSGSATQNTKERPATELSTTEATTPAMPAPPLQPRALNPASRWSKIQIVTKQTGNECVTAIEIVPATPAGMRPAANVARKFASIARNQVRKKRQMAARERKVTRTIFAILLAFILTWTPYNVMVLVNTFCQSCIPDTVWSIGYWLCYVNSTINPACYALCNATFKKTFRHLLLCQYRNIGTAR
Protocol: as §1, §2

[4] = target: T4, human muscarinic M1 receptor (Homo sapiens, UniProt P11229); experiment: Alphascreen Surefire phospho-ERK1/2 functional assay, M1; settings: for % Emax cf. ACh, M1: CHO cells stably expressing human M1; for EC50: pEC50 M1, CHO cells stably expressing human M1, phospho-ERK1/2
T4 sequence (P11229 1-460): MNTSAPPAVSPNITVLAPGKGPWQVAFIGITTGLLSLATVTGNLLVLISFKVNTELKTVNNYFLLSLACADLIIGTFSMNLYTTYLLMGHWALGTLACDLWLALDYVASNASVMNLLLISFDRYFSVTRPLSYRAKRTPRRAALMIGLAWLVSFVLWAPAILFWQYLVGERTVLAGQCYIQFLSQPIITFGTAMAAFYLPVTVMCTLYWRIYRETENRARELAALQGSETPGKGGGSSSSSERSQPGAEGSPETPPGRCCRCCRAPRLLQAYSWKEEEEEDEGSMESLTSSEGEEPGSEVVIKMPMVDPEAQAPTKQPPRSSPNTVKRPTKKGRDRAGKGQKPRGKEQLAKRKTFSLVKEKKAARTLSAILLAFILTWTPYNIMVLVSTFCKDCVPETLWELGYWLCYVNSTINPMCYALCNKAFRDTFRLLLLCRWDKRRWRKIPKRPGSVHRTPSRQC
Protocol: as §1, with “Functional assays were performed using the Alphascreen Surefire phospho-ERK1/2 assay (Crouch & Osmond, Comb. Chem. High Throughput Screen, 2008). ERK1/2” for “ERK1/2”
as §2, with “For the vast majority of examples at least two diastereomers exist and these have been separated, unless otherwise stated, using the techniques of reversed phase HPLC, chiral HPLC or chiral SFC. Isomer assignment” for “Isomer assignment”

Compound: CCOC(=O)N1C2COCC1CC(N1CCC(n3cc(C)cn3)CC1)C2 (single isomer, unassigned) [Example 1-3 Isomer 2, Ethyl 7-[4-(4-methyl-1H-pyrazol-1-yl)piperidin-1-yl]-3-oxa-9-azabicyclo[3.3.1]nonane-9-carboxylate]
- % Emax cf. ACh, M3 ([1]; listed as 1-3 Isomer 2): 5%
- EC50 [1]: > 20 µM
- % Emax cf. ACh, M2 ([2]; listed as 1-3 Isomer 2): 11%
- EC50 [2]: > 20 µM
- % Emax cf. ACh, M4 [3]: 81%
- EC50 [3]: 0.112 µM
- % Emax cf. ACh, M1 ([4]; Emax relative to ACh, listed as 1-3 Isomer 2): 45%
- EC50 [4]: 0.316 µM

Compound: CCOC(=O)N1C2COCC1CC(N1CCC(c3cccnc3OC)CC1)C2 (single isomer, unassigned) [Example 2-2 Isomer 1, Ethyl 7-[4-(2-methoxypyridin-3-yl)piperidin-1-yl]-3-oxa-9-azabicyclo[3.3.1]nonane-9-carboxylate]
- Emax [1]: 4%
- EC50 [1]: > 20 µM
- Emax [2]: 3%
- EC50 [2]: > 20 µM
- % Emax cf. ACh, M4 ([3]; listed as 2-2 Isomer 1): 61%
- EC50 [3]: 0.0363 µM
- % Emax cf. ACh, M1 ([4]; Emax relative to ACh, listed as 2-2 Isomer 1): 63%
- EC50 [4]: > 20 µM

Compound: CCOC(=O)N1C2COCC1CC(N1CCC(c3cccnc3OC)CC1)C2 (single isomer, unassigned) [Example 2-2 Isomer 2, Ethyl 7-[4-(2-methoxypyridin-3-yl)piperidin-1-yl]-3-oxa-9-azabicyclo[3.3.1]nonane-9-carboxylate]
- % Emax cf. ACh, M3 [1]: 5%
- % Emax cf. ACh, M2 [2]: 3%
- % Emax cf. ACh, M4 ([3]; listed as 2-2 Isomer 2): 37%
- EC50 [3]: 0.112 µM
- % Emax cf. ACh, M1 ([4]; Emax relative to ACh, listed as 2-2 Isomer 2): 10%

Compound: CCOC(=O)N1C2COCC1CC(N1CCC(c3ccc[nH]c3=O)CC1)C2 (single isomer, unassigned) [Example 2-3 Isomer 1, Ethyl 7-[4-(2-oxo-1,2-dihydropyridin-3-yl)piperidin-1-yl]-3-oxa-9-azabicyclo[3.3.1]nonane-9-carboxylate]
- Emax [1]: 9%
- EC50 [1]: > 20 µM
- % Emax cf. ACh, M2 ([2]; listed as 2-3 Isomer 1): 45%
- EC50 [2]: 0.288 µM
- % Emax cf. ACh, M4 ([3]; listed as 2-3 Isomer 1): 99%
- EC50 [3]: 0.00646 µM
- % Emax cf. ACh, M1 ([4]; Emax relative to ACh, listed as 2-3 Isomer 1): 77%
- EC50 [4]: 0.195 µM

Compound: CCOC(=O)N1C2COCC1CC(N1CCC(c3ccc[nH]c3=O)CC1)C2 (single isomer, unassigned) [Example 2-3 Isomer 2, Ethyl 7-[4-(2-oxo-1,2-dihydropyridin-3-yl)piperidin-1-yl]-3-oxa-9-azabicyclo[3.3.1]nonane-9-carboxylate]
- % Emax cf. ACh, M3 [1]: 5%
- % Emax cf. ACh, M2 ([2]; listed as 2-3 Isomer 2): 10%
- EC50 [2]: > 20 µM
- % Emax cf. ACh, M4 ([3]; listed as 2-3 Isomer 2): 65%
- EC50 [3]: 0.0115 µM
- % Emax cf. ACh, M1 ([4]; Emax relative to ACh, listed as 2-3 Isomer 2): 34%
- EC50 [4]: 0.174 µM

Compound: CCOC(=O)N1C2COCC1CC(N1CCC(N3CC(F)(F)C[C@@H]3CO)CC1)C2 (single isomer, unassigned) [Example 4-1 Isomer 1]
- % Emax cf. ACh, M3 ([1]; listed as 4-1 Isomer 1): 11%
- EC50 [1]: > 20 µM
- % Emax cf. ACh, M2 ([2]; listed as 4-1 Isomer 1): 87%
- EC50 [2]: 0.251 µM
- % Emax cf. ACh, M4 ([3]; listed as 4-1 Isomer 1): 114%
- EC50 [3]: 0.0309 µM
- % Emax cf. ACh, M1 ([4]; Emax relative to ACh, listed as 4-1 Isomer 1): 108%
- EC50 [4]: 0.155 µM

Compound: CCOC(=O)N1C2COCC1CC(N1CCC(N3CC(F)(F)C[C@@H]3CO)CC1)C2 (single isomer, unassigned) [Example 4-1 Isomer 2]
- % Emax cf. ACh, M3 ([1]; listed as 4-1 Isomer 2): 4%
- % Emax cf. ACh, M2 ([2]; listed as 4-1 Isomer 2): 17%
- EC50 [2]: > 20 µM
- % Emax cf. ACh, M4 ([3]; listed as 4-1 Isomer 2): 59%
- EC50 [3]: 0.1 µM
- % Emax cf. ACh, M1 ([4]; Emax relative to ACh, listed as 4-1 Isomer 2): 47%
- EC50 [4]: 0.398 µM

Compound: CCOC(=O)N1C2COCC1CC(N1CCC3(CC1)CC3)C2 (single isomer, unassigned) [Example 5-1 Isomer 1, Ethyl 7-(6-azaspiro[2.5]oct-6-yl)-3-oxa-9-azabicyclo[3.3.1]nonane-9-carboxylate]
- % Emax cf. ACh, M3 ([1]; listed as 5-1 Isomer 1): 0%
- EC50 [1]: > 20 µM
- Emax [2]: 8%
- EC50 [2]: > 20 µM
- % Emax cf. ACh, M4 ([3]; listed as 5-1 Isomer 1): 13%
- EC50 [3]: > 20 µM
- Emax ([4]; CHO, read-out: % Emax cf. ACh, M1, CHO cells stably expressing human M1, Emax relative to ACh): 47%
- EC50 [4]: 0.0724 µM

Compound: CCOC(=O)N1C2COCC1CC(N1CCC3(CC1)CC3)C2 (single isomer, unassigned) [Example 5-1 Isomer 2, Ethyl 7-(6-azaspiro[2.5]oct-6-yl)-3-oxa-9-azabicyclo[3.3.1]nonane-9-carboxylate]
- % Emax cf. ACh, M3 ([1]; listed as 5-1 Isomer 2): 8%
- % Emax cf. ACh, M2 [2]: 13%
- % Emax cf. ACh, M4 ([3]; listed as 5-1 Isomer 2): 41%
- EC50 [3]: 0.0339 µM
- % Emax cf. ACh, M1 ([4]; Emax relative to ACh): 66%
- EC50 [4]: 0.141 µM
